Source: PMC11191095, “QSAR Reveals Decreased Lipophilicity of Polar Residues Determines the Selectivity of Antimicrobial Peptide Activity” (ACS Omega, 2024)
Where a SMILES comes first, the peptide text is derived from it.

What was measured:
Test in all cases: microbe, parasite or virus in culture
[1] = test system: S. aureus (MRSA) 1199B; type: cell-based, Staphylococcus aureus; settings: S. aureus (MRSA) 1199B (R)
How it was run: (§1)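 Peptides 128→2 μg/mL, 2-fold series; inoculum ~5 × 10^5 CFU/mL from overnight culture (OD600 0.01, mixed 1:1). MHB non-cation-adjusted for bacteria, RPMI 1640 + 2% glucose for fungi. 37 °C, 20 h, OD600. MIC50/MIC90 at 50%/90% inhibition; n ≥ 3.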

[2] = test system: S. aureus (MRSA) USA300; type: cell-based, Staphylococcus aureus; settings: S. aureus (MRSA) USA300 (R)
How it was run: as §1

[3] = test system: S. aureus (MSSA) ATCC 9144; type: cell-based, Staphylococcus aureus; settings: S. aureus (MSSA) ATCC 9144 (S)
How it was run: as §1

[4] = test system: S. aureus (MRSA) NCTC 13616; type: cell-based, Staphylococcus aureus; settings: S. aureus (MRSA) NCTC 13616 (R)
How it was run: as §1

[5] = test system: A. baumannii AYE; type: cell-based, Acinetobacter baumannii; settings: A. baumannii AYE (R)
How it was run: as §1

[6] = test system: A. baumannii ATCC 17978; type: cell-based, Acinetobacter baumannii; settings: A. baumannii ATCC 17978 (S)
How it was run: as §1

[7] = test system: P. aeruginosa NCTC 13437; type: cell-based, Pseudomonas aeruginosa; settings: P. aeruginosa NCTC 13437 (R)
How it was run: as §1

[8] = test system: E. coli LEC001; type: cell-based, Escherichia coli; settings: E. coli LEC001 (R)
How it was run: as §1

[9] = test system: E. coli NCTC 12923; type: cell-based, Escherichia coli; settings: E. coli NCTC 12923 (S)
How it was run: as §1

[10] = test system: K. pneumoniae M6; type: cell-based, Klebsiella pneumoniae; settings: K. pneumoniae M6 (S)
How it was run: as §1

[11] = test system: K. pneumoniae NCTC 13368; type: cell-based, Klebsiella pneumoniae; settings: K. pneumoniae NCTC 13368 (R)
How it was run: as §1

[12] = test system: C. glabrata NCPF 8018; type: cell-based; settings: C. glabrata NCPF 8018
How it was run: as §1

[13] = test system: C. parapsilosis NCPF 3209; type: cell-based; settings: C. parapsilosis NCPF 3209
How it was run: as §1

[14] = test system: C. albicans NCPF 3281; type: cell-based; settings: C. albicans NCPF 3281
How it was run: as §1

[15] = test system: C. krusei NCPF 3876; type: cell-based; settings: C. krusei NCPF 3876
How it was run: as §1

[16] = test system: C. tropicalis NCPF 8760; type: cell-based; settings: C. tropicalis NCPF 8760
How it was run: as §1

[17] = MHB, 37 °C, 20 h, OD600, min. three biological repeats
[18] = MHB, ~5×10^5 CFU/mL, 37 °C, 20 h, OD600, min. three biological repeats
[19] = 50% growth inhibition, RPMI 1640 + 2% glucose, 37 °C, 20 h
[20] = 90% growth inhibition, RPMI 1640 + 2% glucose, 37 °C, 20 h

CC[C@H](C)[C@H](NC(=O)[C@H](CCCCN)NC(=O)[C@H](CC(C)C)NC(=O)[C@H](C)NC(=O)[C@H](C)NC(=O)[C@H](CCCCN)NC(=O)[C@H](CC(C)C)NC(=O)[C@H](C)NC(=O)[C@@H](N)CCCCN)C(=O)NCC(N)=O [CPF-P3-10a] (H-KALKAALKIG-NH2)
> 122 µM: Modal MIC ([1]; shown in µM) | Modal MIC ([2]; shown in µM) | Modal MIC ([3]; shown in µM) | Modal MIC ([4]; shown in µM) | Modal MIC ([5]; shown in µM) | Modal MIC ([6]; shown in µM) | Modal MIC ([7]; shown in µM) | Modal MIC ([8]; shown in µM) | Modal MIC ([9]; shown in µM) | Modal MIC ([10]; shown in µM) | Modal MIC ([11]; shown in µM) | Modal MIC50 ([12]; shown in µM) | Modal MIC90 ([12]; shown in µM) | Modal MIC50 ([13]; shown in µM) | Modal MIC90 ([13]; shown in µM) | Modal MIC50 ([14]; shown in µM) | Modal MIC90 ([14]; shown in µM) | Modal MIC50 ([15]; shown in µM) | Modal MIC90 ([15]; shown in µM) | Modal MIC50 ([16]; shown in µM) | Modal MIC90 ([16]; shown in µM)
> 128 µg/mL: Modal MIC [1, 17] | Modal MIC [2, 17] | Modal MIC [3, 17] | Modal MIC [4, 17] | Modal MIC [5, 17] | Modal MIC [6, 17] | Modal MIC [7, 17] | Modal MIC [8, 17] | Modal MIC [9, 18] | Modal MIC [10, 17] | Modal MIC [11, 17] | Modal MIC50 [12, 19] | Modal MIC90 [12, 20] | Modal MIC50 [13, 19] | Modal MIC90 [13, 20] | Modal MIC50 [14, 19] | Modal MIC90 [14, 20] | Modal MIC50 [15, 19] | Modal MIC90 [15, 20] | Modal MIC50 [16, 19] | Modal MIC90 [16, 20]

CC(C)C[C@H](NC(=O)[C@H](CCCCN)NC(=O)[C@H](CO)NC(=O)[C@H](CCCCN)NC(=O)[C@@H](N)Cc1c[nH]c2ccccc12)C(=O)N[C@@H](C)C(=O)N[C@@H](CCCCN)C(=O)N[C@@H](CCCCN)C(N)=O [PS-PB-8a] (H-WKSKLAKK-NH2)
> 127.2 µM: Modal MIC ([1]; shown in µM) | Modal MIC ([2]; shown in µM) | Modal MIC ([3]; shown in µM) | Modal MIC ([4]; shown in µM) | Modal MIC ([5]; shown in µM) | Modal MIC ([6]; shown in µM) | Modal MIC ([7]; shown in µM) | Modal MIC ([8]; shown in µM) | Modal MIC ([9]; shown in µM) | Modal MIC ([10]; shown in µM) | Modal MIC ([11]; shown in µM) | Modal MIC50 ([12]; shown in µM) | Modal MIC90 ([12]; shown in µM) | Modal MIC50 ([13]; shown in µM) | Modal MIC90 ([13]; shown in µM) | Modal MIC50 ([14]; shown in µM) | Modal MIC90 ([14]; shown in µM) | Modal MIC50 ([15]; shown in µM) | Modal MIC90 ([15]; shown in µM) | Modal MIC50 ([16]; shown in µM) | Modal MIC90 ([16]; shown in µM)
> 128 µg/mL: Modal MIC [1, 17] | Modal MIC [2, 17] | Modal MIC [3, 17] | Modal MIC [4, 17] | Modal MIC [5, 17] | Modal MIC [6, 17] | Modal MIC [7, 17] | Modal MIC [8, 17] | Modal MIC [9, 18] | Modal MIC [10, 17] | Modal MIC [11, 17] | Modal MIC50 [12, 19] | Modal MIC90 [12, 20] | Modal MIC50 [13, 19] | Modal MIC90 [13, 20] | Modal MIC50 [14, 19] | Modal MIC90 [14, 20] | Modal MIC50 [15, 19] | Modal MIC90 [15, 20] | Modal MIC50 [16, 19] | Modal MIC90 [16, 20]

C[C@H](NC(=O)CNC(=O)[C@H](CCCCN)NC(=O)[C@@H](N)CS)C(=O)N[C@@H](Cc1ccccc1)C(=O)N[C@@H](CCCCN)C(=O)N[C@@H](CCC(N)=O)C(=O)N[C@H](C(=O)N[C@@H](CS)C(=O)N[C@@H](CCCCN)C(=O)N[C@@H](CS)C(=O)N[C@@H](Cc1ccc(O)cc1)C(N)=O)[C@@H](C)O [Os(11-22)a] (H-CKGAFKQTCKCY-NH2; N-terminus assumed)
> 128 µg/mL: Modal MIC [1, 17] | Modal MIC [2, 17] | Modal MIC [3, 17] | Modal MIC [4, 17] | Modal MIC [5, 17] | Modal MIC [6, 17] | Modal MIC [7, 17] | Modal MIC [8, 17] | Modal MIC [9, 18] | Modal MIC [10, 17] | Modal MIC [11, 17] | Modal MIC50 [12, 19] | Modal MIC90 [12, 20] | Modal MIC50 [13, 19] | Modal MIC90 [13, 20] | Modal MIC50 [14, 19] | Modal MIC90 [14, 20] | Modal MIC50 [15, 19] | Modal MIC90 [15, 20] | Modal MIC50 [16, 19] | Modal MIC90 [16, 20]
> 91.7 µM: Modal MIC ([1]; shown in µM) | Modal MIC ([2]; shown in µM) | Modal MIC ([3]; shown in µM) | Modal MIC ([4]; shown in µM) | Modal MIC ([5]; shown in µM) | Modal MIC ([6]; shown in µM) | Modal MIC ([7]; shown in µM) | Modal MIC ([8]; shown in µM) | Modal MIC ([9]; shown in µM) | Modal MIC ([10]; shown in µM) | Modal MIC ([11]; shown in µM) | Modal MIC50 ([12]; shown in µM) | Modal MIC90 ([12]; shown in µM) | Modal MIC50 ([13]; shown in µM) | Modal MIC90 ([13]; shown in µM) | Modal MIC50 ([14]; shown in µM) | Modal MIC90 ([14]; shown in µM) | Modal MIC50 ([15]; shown in µM) | Modal MIC90 ([15]; shown in µM) | Modal MIC50 ([16]; shown in µM) | Modal MIC90 ([16]; shown in µM)
